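These data come from cells grown in 96-well plates and exposed to compound for 48 hours at five concentrations. At the GI50, growth is halved. TGI denotes the concentration required for complete inhibition of growth.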 Where a SMILES comes first, the peptide text is derived from it. [ ]: non-standard residue; d: D form. The star is where a group is joined. ξ: configuration not given here. X6 = FC(F)(F)c1cc(NC(=S)*)cc(C(F)(F)F)c1; ξF = NC(Cc1ccccc1)C(=O)O
How the values were obtained:
Assay in all cases: inhibition of tumour cell growth, NCI panel, 48 h
U251 CNS = system: U251 CNS
SF-268 CNS = system: SF-268 CNS
UO-31 renal = system: UO-31 renal
OVCAR-4 ovarian = system: OVCAR-4 ovarian
NCI-H460 lung = system: NCI-H460 lung
HCT-15 colon = system: HCT-15 colon
IGROV1 ovarian = system: IGROV1 ovarian
SK-OV-3 ovarian = system: SK-OV-3 ovarian
SF-295 CNS = system: SF-295 CNS
HOP-92 NSCLC = system: HOP-92 NSCLC

| Structure (SMILES) | TGI (U251 CNS) | TGI (SF-268 CNS) | TGI (UO-31 renal) | TGI (OVCAR-4 ovarian) | TGI (NCI-H460 lung) | TGI (HCT-15 colon) | TGI (IGROV1 ovarian) | TGI (SK-OV-3 ovarian) | GI50 (U251 CNS) | GI50 (SF-268 CNS) | GI50 (UO-31 renal) | GI50 (OVCAR-4 ovarian) | GI50 (NCI-H460 lung) | GI50 (HCT-15 colon) | GI50 (SF-295 CNS) | TGI (SF-295 CNS) | GI50 (IGROV1 ovarian) | GI50 (SK-OV-3 ovarian) | TGI (HOP-92 NSCLC) | GI50 (HOP-92 NSCLC) |
| --- | --- | --- | --- | --- | --- | --- | --- | --- | --- | --- | --- | --- | --- | --- | --- | --- | --- | --- | --- | --- |
| COC(=O)CC1CCN(C#N)CC1CC[N+](=O)[O-] (configuration not stated) | > 100 µM | > 100 µM | > 100 µM | > 100 µM | > 100 µM | > 100 µM | > 100 µM | > 100 µM | – | – | – | – | – | – | – | – | – | – | – | – |
| Cc1ccc(NC2=C(Cl)C(=O)N(Cc3ccccc3)C2=O)cc1O | 84.6 µM | > 100 µM | > 100 µM | > 100 µM | > 100 µM | > 100 µM | > 100 µM | > 100 µM | 18.7 µM | 31.7 µM | 82.2 µM | 79.3 µM | 34 µM | 33.5 µM | 22 µM | 81.8 µM | 35.4 µM | 55.2 µM | – | – |
| N#CC(c1ccc(Cl)cc1)c1cccc(C(C#N)c2ccc(Cl)cc2)n1 (configuration not stated) | > 100 µM | > 100 µM | 42.3 µM | > 100 µM | > 100 µM | – | – | > 100 µM | – | – | – | – | – | – | – | > 100 µM | – | – | 60.6 µM | – |
| CC1(c2ccc(F)cc2)C(C#N)C(=O)NC(=O)C1C#N (configuration not stated) | – | > 100 µM | > 100 µM | > 100 µM | > 100 µM | > 100 µM | > 100 µM | > 100 µM | – | – | – | – | – | – | – | > 100 µM | – | – | > 100 µM | – |
| Cc1ccc(N=Nc2ccc(N(CCC#N)CCC#N)cc2C)c(Br)c1 | > 100 µM | > 100 µM | > 100 µM | > 100 µM | – | > 100 µM | > 100 µM | > 100 µM | – | – | – | – | – | – | – | 93.1 µM | – | – | – | – |
| CN(C)C(=N)c1ccccc1 | > 100 µM | – | > 100 µM | > 100 µM | > 100 µM | – | – | – | – | – | – | – | – | – | – | > 100 µM | – | – | > 100 µM | – |
| CC(C)C/C(CC(=O)CCC(=O)Nc1ccccc1[N+](=O)[O-])=N\NC(=O)c1cc2ccccc2cc1O | > 100 µM | > 100 µM | > 100 µM | – | > 100 µM | > 100 µM | > 100 µM | > 100 µM | – | – | – | – | – | – | – | 99.8 µM | – | – | > 100 µM | – |
| N#CC1C(C#N)C2(c3ccccc3)C(c3ccccc3)=NN(c3ccccc3)CC12 (configuration not stated) | > 100 µM | – | > 100 µM | > 100 µM | > 100 µM | > 100 µM | > 100 µM | – | – | – | – | – | – | – | – | > 100 µM | – | – | – | – |
| O=CC[C@H]1C(=O)C[C@@H]2CCC[C@@H]21 | > 100 µM | > 100 µM | – | > 100 µM | > 100 µM | > 100 µM | > 100 µM | > 100 µM | – | – | – | – | – | – | – | > 100 µM | – | – | > 100 µM | – |
| N#CCCN(CCC#N)c1ccc(/C=C2\N=C(c3cc([N+](=O)[O-])ccc3Cl)OC2=O)cc1 | 32.1 µM | > 100 µM | > 100 µM | 78.6 µM | > 100 µM | > 100 µM | > 100 µM | > 100 µM | – | – | – | – | – | – | – | > 100 µM | – | – | – | – |
| O=C(O)c1ccccc1[Se][Se]c1ccccc1C(=O)O | > 100 µM | > 100 µM | 28.3 µM | – | > 100 µM | > 100 µM | > 100 µM | > 100 µM | – | – | – | – | – | – | – | > 100 µM | – | – | > 100 µM | – |
| C=C1C(=O)C23CC1CCC2C12CO[C@@H]4OCC(C)(CC[C@@H]1OC3=O)C42 (some centres not stated) | 27.4 µM | 12.7 µM | 23.6 µM | – | 17.5 µM | 7.88 µM | 14.1 µM | 40.1 µM | – | – | – | – | – | – | – | 30.9 µM | – | – | 5.78 µM | – |
| O=S1(=O)c2ccccc2NC(c2ccc3ccccc3c2)CC1c1ccccc1F (configuration not stated) | – | > 100 µM | > 100 µM | > 100 µM | > 100 µM | > 100 µM | > 100 µM | > 100 µM | – | – | – | – | – | – | – | > 100 µM | – | – | – | – |
| Cc1coc2c1CC1(C)C(CCC(O)C1C)C2 (configuration not stated) | > 100 µM | > 100 µM | – | > 100 µM | > 100 µM | > 100 µM | > 100 µM | > 100 µM | – | – | – | – | – | – | – | > 100 µM | – | – | > 100 µM | – |
| COC(=O)[C@@H](NC(=O)CNC(=O)[C@H]1CCCN1C(=O)C(Cc1ccccc1)NC(=S)Nc1cc(C(F)(F)F)cc(C(F)(F)F)c1)C(C)C (some centres not stated) (X6-[ξF][dP]GV-OMe) | – | 10.7 µM | 13.9 µM | 17.6 µM | 12 µM | 5.37 µM | 10.3 µM | 8.26 µM | – | 2.98 µM | 2.91 µM | 3.17 µM | 3.39 µM | 2.29 µM | 2.33 µM | 6.12 µM | 3.31 µM | 2.98 µM | 6.37 µM | 1.95 µM |
| COc1cc(CNc2cnc3cc(N)cc(N)c3n2)cc(OC)c1 | – | 37.7 µM | > 100 µM | – | > 100 µM | 38.1 µM | > 100 µM | – | – | 15.8 µM | 38.2 µM | – | 54.4 µM | 17.6 µM | 26.5 µM | 71.9 µM | 33.6 µM | – | 25.9 µM | 10.3 µM |
| O=C1/C(=C/c2ccccc2)CN(C(=O)C(Cl)(Cl)Cl)C/C1=C\c1ccccc1 | 3 µM | 13.4 µM | 7.03 µM | 3.42 µM | 4.17 µM | 3.58 µM | 5.32 µM | – | – | – | – | – | – | – | – | 3.24 µM | – | – | – | – |
| CCOC(=O)CN1C(=O)c2cccc3cc([N+](=O)[O-])cc(c23)C1=O | 20.3 µM | 11.1 µM | 27 µM | 3.27 µM | 17.3 µM | 3.47 µM | 14.8 µM | 41 µM | – | – | – | – | – | – | – | – | – | – | 6.21 µM | – |
| COc1cc2c(cc1OC)-c1c3cc(O)ccc3nn[n+]1CC2 | > 100 µM | > 100 µM | – | > 100 µM | > 100 µM | – | > 100 µM | > 100 µM | – | – | – | – | – | – | – | > 100 µM | – | – | – | – |
| CCCCOC(=O)C1OC(O[C@H]2CCC3(C)C(CCC4(C)C3CC=C3C5CC(C)(C)CCC5(C(=O)O)CC[C@]34C)C2(C)C)C(OC2OC(CO)C(O)C(O)C2O)C(OC2OC(CO)C(O)C(O)C2O)C1O (some centres not stated) | 31.8 µM | 84.4 µM | > 100 µM | – | > 100 µM | 51 µM | > 100 µM | – | 17.9 µM | 27.7 µM | 49.2 µM | – | 33.3 µM | 20.9 µM | 26 µM | 71 µM | > 100 µM | – | > 100 µM | 33.2 µM |
| COC1(OC)CCC2C1C1CCC(OC)(OC)C21 (configuration not stated) | > 50 µM | > 50 µM | > 50 µM | > 50 µM | – | > 50 µM | > 50 µM | > 50 µM | – | – | – | – | – | – | – | > 50 µM | – | – | > 50 µM | – |

Source: PubChem BioAssay (NCI)
